Laboratory results from patent US10214534B2, “Substituted 2-phenyl (AZA)benzofuran compounds for the treatment of hepatitis C” (BRISTOL-MYERS SQUIBB COMPANY, priority 2014, dated 2019).
Like-named read-outs stand apart in the source and are kept apart here.

What was measured:
[1] = system: genotype 1b (Con-1) HCV replicon; test: HCV replicon luciferase assay; type: cell-based; settings: Hepatitis C virus, 72 h, genotype 1b replicon, Huh-7, Renilla luciferase, 3 days
Procedure: The cell lines used to evaluate compounds consist of a human hepatocyte derived cell line (Huh-7) that constitutively expresses a genotype 1b (Con-1) HCV replicon or a genotype 1b (Con-1) HCV replicon with an asparagine replacing the cysteine at amino acid 316, or a genotype 2a (JFH-1) replicon, containing a Renilla luciferase reporter gene. These cells were maintained in Dulbecco's modified Eagle medium (DMEM) containing 10% FBS, 100 U/mL penicillin/streptomycin and 1.0 mg/mL G418.
To evaluate compound efficacy, titrated compounds were transferred to sterile 384-well tissue culture treated plates, and the plates were seeded with HCV replicon cells (50 μL at a density of 2.4×10^3 cells/well) in DMEM containing 4% FBS (final DMSO concentration at 0.5%). After 3 days incubation at 37° C., cells were analyzed for Renilla Luciferase activity using the EnduRen substrate (Promega cat #E6485) according to the manufacturer's directions. Briefly, the EnduRen substrate was diluted in DMEM and then added to the plates to a final concentration of 7.5 μM. The plates were incubated for at least 1 h at 37° C. then read on a Viewlux Imager (PerkinElmer) using a luminescence program. The 50% effective concentration (EC50) was calculated using the four-parameter logistic formula noted above.

[2] = system: HCV; settings: cited from earlier work
[3] = system: HCV; settings: cited from earlier work; remark: listed apart in the source

Compound	EC50 ([1]; read-out: EC50 1b (class))	also measured
CNC(=O)c1c(-c2ccc(Oc3cccc(F)c3)cc2)oc2cc(N(C)S(C)(=O)=O)c(-c3cccc(C(=O)NCC(F)(F)F)c3)cc12 [Compound 1020]	< 0.1 µM	
CNC(=O)c1c(-c2ccc(Oc3ccc(OC)cc3)cc2)oc2nc(CCC(F)(F)F)c(-c3cccc(C(=O)NC(C)(C)C)c3)cc12 [Compound 2003]	0.1 to 1 µM	
CCN(c1cc2oc(-c3ccc(Oc4ccccc4F)cc3)c(C(=O)NC)c2cc1-c1cccc(C(=O)NC(C)(C)C)c1)S(C)(=O)=O [Compound 1004]	< 0.1 µM	
CNC(=O)c1c(-c2ccc(Oc3ccc(C(=O)O)cc3)cc2)oc2nc(CCC(F)(F)F)c(-c3cccc(C(=O)NC(C)(C)C)c3)cc12 [Compound 2013]	> 1 µM	
CNC(=O)c1c(-c2ccc(Oc3ccccc3C)cc2)oc2nc(CCC(F)(F)F)c(-c3cccc(C(=O)NC(C)(C)C)c3)cc12 [Compound 2008]	< 0.1 µM	
CCN(c1cc2oc(-c3ccc(Oc4ccc(OC)cc4)cc3)c(C(=O)NC)c2cc1-c1cccc(C(=O)NC(C)(C)C)c1)S(C)(=O)=O [Compound 1005]	0.1 to 1 µM	EC50 ([1]; read-out: EC50 (uM) 1b): 0.12 µM
CNC(=O)c1c(-c2ccc(Oc3ccccn3)cc2)oc2nc(CCC(F)(F)F)c(-c3cccc(C(=O)NC(C)(C)C)c3)cc12 [Compound 2012]	> 1 µM	
CCN(CC)c1cc2oc(-c3ccc(Oc4cccc(F)c4)cc3)c(C(=O)NC)c2cc1-c1ccc(OC)c(C(N)=O)c1 [Compound 1010]	0.1 to 1 µM	
CNC(=O)c1c(-c2ccc(Sc3ccccc3)cc2)oc2nc(CCC(F)(F)F)c(-c3cccc(C(=O)NC(C)(C)C)c3)cc12 [Compound 5001]	0.1 to 1 µM	EC50 ([1]; read-out: EC50 (uM) 1b): 0.16 µM
CCN(c1cc2oc(-c3ccc(Oc4cccc(F)c4)cc3)c(C(=O)NC)c2cc1-c1cccc(C(=O)NC(C)(C)C)c1)S(C)(=O)=O [Compound 1003]	< 0.1 µM	EC50 ([1]; read-out: EC50 (uM) 1b): 0.0023 µM
CNC(=O)c1c(-c2ccc(N3CCCC3)cc2)oc2nc(CCC(F)(F)F)c(-c3cccc(C(=O)NC(C)(C)C)c3)cc12 [Compound 4001]	> 1 µM	
CNC(=O)c1c(-c2ccc(Oc3cccc(OC)c3)cc2)oc2nc(CCC(F)(F)F)c(-c3cccc(C(=O)NC(C)(C)C)c3)cc12 [Compound 2009]	< 0.1 µM	
CNC(=O)c1c(-c2ccc(Oc3ccc(C)cc3)cc2)oc2nc(CCC(F)(F)F)c(-c3cccc(C(=O)NC(C)(C)C)c3)cc12 [Compound 2002]	< 0.1 µM	
CCN(c1cc2oc(-c3ccc(Oc4cccc(F)c4)cc3)c(C(=O)NC)c2cc1-c1cccc(C(=O)N[C@@H](C)C(F)(F)F)c1)S(C)(=O)=O [Compound 1017]	< 0.1 µM	EC50 ([1]; read-out: EC50 (uM) 1b): 0.0062 µM
CNC(=O)c1c(-c2ccc(Oc3ccc(F)cc3)cc2)oc2nc(CCC(F)(F)F)c(-c3cccc(C(=O)NC(C)(C)C)c3)cc12 [Compound 2004]	< 0.1 µM	
CCN(c1cc2oc(-c3ccc(Oc4cccc(F)c4)cc3)c(C(=O)NC)c2cc1-c1cccc(C(N)=O)c1)S(C)(=O)=O [Compound 1018]	< 0.1 µM	
[2H]C([2H])([2H])C(NC(=O)c1cc(-c2cc3c(C(=O)NC)c(-c4ccc(Oc5ccc(F)cc5)cc4)oc3cc2N(CC)S(C)(=O)=O)ccc1OC)(C([2H])([2H])[2H])C([2H])([2H])[2H] [Compound 1022]	< 0.1 µM	
CCN(c1cc2oc(-c3ccc(Oc4ccc(F)cc4)cc3)c(C(=O)NC)c2cc1-c1cccc(C(=O)NC(C)(C)C)c1)S(C)(=O)=O [Compound 1002]	< 0.1 µM	
CNC(=O)c1c(-c2ccc(NCC(F)F)cc2)oc2nc(NCC(F)F)c(-c3cccc(C(=O)NC(C)(C)C)c3)cc12 [Compound 4002]	< 0.1 µM	EC50 ([1]; read-out: EC50 (uM) 1b): 0.0094 µM
CCN(c1cc2oc(-c3ccc(Oc4ccccc4)cc3)c(C(=O)NC)c2cc1-c1cccc(C(=O)NC(C)(C)C)c1)S(C)(=O)=O [Compound 1001]	< 0.1 µM	
CCN(c1cc2oc(-c3ccc(Oc4cccc(Cl)c4)cc3)c(C(=O)NC)c2cc1-c1cccc(C(N)=O)c1)S(C)(=O)=O [Compound 1016]	< 0.1 µM	
CCCCOc1ccc(-c2oc3nc(CCC(F)(F)F)c(-c4cccc(C(=O)NC(C)(C)C)c4)cc3c2C(=O)NC)cc1 [Compound 3001]	< 0.1 µM	
CNC(=O)c1c(-c2ccc(OCC(F)(F)F)cc2)oc2nc(CCC(F)(F)F)c(-c3cccc(C(=O)NC(C)(C)C)c3)cc12 [Compound 3002]	< 0.1 µM	

Compound	EC50 ([1]; read-out: EC50 1b (class))	also measured
CNC(=O)c1c(-c2ccc(F)cc2)oc2cc(N(CCO)S(C)(=O)=O)c(C3CC3)cc12 [HCV-796]		toxicity during extended dosing ([2]; extended dosing of the combination regimens): hepatic toxicity; HCV RNA levels in patients ([2]; patients, single agent transient, more robust with interferon and ribavirin): reduce HCV RNA levels
CNC(=O)c1c(-c2ccc(Oc3cccc(C)c3)cc2)oc2nc(CCC(F)(F)F)c(-c3cccc(C(=O)NC(C)(C)C)c3)cc12 [Compound 2007]	< 0.1 µM	
CCN(c1cc2oc(-c3ccc(Oc4cccc(F)c4)cc3)c(C(=O)NC)c2cc1-c1cccc(C(=O)NC2(C)CC2)c1)S(C)(=O)=O [Compound 1015]	> 1 µM	
CCN(c1cc2oc(-c3ccc(Oc4cccc(OC)c4)cc3)c(C(=O)NC)c2cc1-c1cccc(C(=O)NC(C)(C)C)c1)S(C)(=O)=O [Compound 1006]	< 0.1 µM	
CNC(=O)c1c(-c2ccc(Oc3ccccc3F)cc2)oc2nc(CCC(F)(F)F)c(-c3cccc(C(=O)NC(C)(C)C)c3)cc12 [Compound 2006]	< 0.1 µM	
CNC(=O)c1c(-c2ccc(Oc3cccnc3)cc2)oc2nc(CCC(F)(F)F)c(-c3cccc(C(=O)NC(C)(C)C)c3)cc12 [Compound 2011]	< 0.1 µM	
CCN(CC)c1cc2oc(-c3ccc(Oc4cccc(F)c4)cc3)c(C(=O)NC)c2cc1-c1ccc(O)c(C(N)=O)c1 [Compound 1008]	< 0.1 µM	EC50 ([1]; read-out: EC50 (uM) 1b): 0.013 µM
CNC(=O)c1c(-c2ccc(Oc3ccccc3)cc2)oc2nc(CCC(F)(F)F)c(-c3cccc(C(=O)NC(C)(C)C)c3)cc12 [Compound 2001]	< 0.1 µM	
CCNc1cc2oc(-c3ccc(Oc4cccc(F)c4)cc3)c(C(=O)NC)c2cc1-c1cccc(C(=O)NC(C)(C)CC(=O)O)c1 [Compound 1013]	0.1 to 1 µM	
CNC(=O)c1c(-c2ccc(Oc3cccc(F)c3)cc2)oc2nc(CCC(F)(F)F)c(-c3cccc(C(=O)NC(C)(C)C)c3)cc12 [Compound 2005]	< 0.1 µM	
CCN(c1cc2oc(-c3ccc(Oc4cccc(Cl)c4)cc3)c(C(=O)NC)c2cc1-c1cccc(C(=O)N[C@@H](C)C(F)(F)F)c1)S(C)(=O)=O [Compound 1019]	< 0.1 µM	
CCN(c1cc2oc(-c3ccc(Oc4cccc(F)c4)cc3)c(C(=O)NC)c2cc1-c1cccc(C(=O)NCC(C)(C)CO)c1)S(C)(=O)=O [Compound 1023]	< 0.1 µM	EC50 ([1]; read-out: EC50 (uM) 1b): 0.0028 µM
CNC(=O)c1c(-c2ccc(Oc3cccc(F)c3)cc2)oc2nc(CCC(F)(F)F)c(-c3ccc(OC)c(C(=O)NC4(c5ncccn5)CC4)c3)cc12 [Compound 2014]	< 0.1 µM	
CCNc1nc2oc(-c3ccc(C)cc3)c(C(=O)NC)c2cc1-c1cccc(C(=O)NC(C)(C)C)c1 [Compound 6002, 5-(3-(tert-butylcarbamoyl)phenyl)-6-(ethylamino)-N-methyl-2-(p-tolyl)furo[2,3-b]pyridine-3-carboxamide]	< 0.1 µM	EC50 ([1]; read-out: EC50 (uM) 1b): 0.0036 µM
[2H]C([2H])([2H])C(NC(=O)c1cc(-c2cc3c(C(=O)NC)c(-c4ccc(Oc5cccc(F)c5)cc4)oc3cc2N(CC)S(C)(=O)=O)ccc1OC)(C([2H])([2H])[2H])C([2H])([2H])[2H] [Compound 1021]	< 0.1 µM	
CNC(=O)c1c(-c2ccc(Oc3ccccc3OC)cc2)oc2nc(CCC(F)(F)F)c(-c3cccc(C(=O)NC(C)(C)C)c3)cc12 [Compound 2010]	< 0.1 µM	
CCOC(=O)c1c(-c2ccc(Oc3cccc(O)c3)cc2)oc2cc([N+](=O)[O-])c(O)cc12 [Compound 1014]	> 1 µM	EC50 ([1]; read-out: EC50 (uM) 1b): 9.94 µM
CCN(c1cc2oc(-c3ccc(Oc4ccccc4OC)cc3)c(C(=O)NC)c2cc1-c1cccc(C(=O)NC(C)(C)C)c1)S(C)(=O)=O [Compound 1007]	< 0.1 µM	EC50 ([1]; read-out: EC50 (uM) 1b): 0.024 µM
CCN(CC)c1cc2oc(-c3ccc(Oc4cccc(F)c4)cc3)c(C(=O)NC)c2cc1-c1cccc(C(=O)NC(C)(C)C(=O)O)c1 [Compound 1012]	> 1 µM	EC50 ([1]; read-out: EC50 (uM) 1b): 1.47 µM
CNC(=O)c1c(-c2ccc(Oc3ccc(F)cc3)cc2)oc2cc(N(C)S(C)(=O)=O)c(-c3cccc(C(=O)NCC(F)(F)F)c3)cc12 [Compound 1026]	< 0.1 µM	
alpha-interferon and ribavirin		sustained efficacy, share of patients [3]: 40%
CCNc1nc2oc(-c3ccc(C)cc3)c(C(=O)NC)c2cc1-c1cccc(C(=O)NC2(C(F)(F)F)CC2)c1 [Compound 6003, 6-(ethylamino)-N-methyl-2-(p-tolyl)-5-(3-((1-(trifluoromethyl)cyclopropyl)carbamoyl)phenyl)furo[2,3-b]pyridine-3-carboxamide]	< 0.1 µM	EC50 ([1]; read-out: EC50 (uM) 1b): 0.0061 µM
CNC(=O)c1c(-c2ccc(C(C#N)C(N)=O)cc2)oc2nc(CCC(F)(F)F)c(-c3cccc(C(=O)NC(C)(C)C)c3)cc12 (stereo not drawn) [Compound 6001]	0.1 to 1 µM	EC50 ([1]; read-out: EC50 (uM) 1b): 0.34 µM
